Results: patent publication US20160074390A1, “HUMAN DOSING OF PHOSPHATASE INHIBITOR” (Lixte Biotechnology, Inc., priority 2014, published 2016)
Where “and” joins values, the source holds several entries; their conditions need not be identical. Equal entries are not always repeated. Where two headings read alike, the source gives them in different places.

What was measured:
[1] = tested on: HeLa cells, OS-17, MKN28, MKN45, MGC803, and SGC7901 cells; test: Growth of Mad2-overexpressing cell lines in vitro; assay type: cell-based, human; details: all cell lines; present-tense example
Description: Compound LB-100 inhibits PP2A phosphatase in cancer cells which in turn induces Mad-2 phosphorylation while suppressing Mad-2 protein levels. In order to characterize the effects of LB-100 on cancers overexpressing Mad2, tumor cell lines carrying Mad2-overexpressing mutations are tested. LB-100 inhibits the growth of the cancer cells in in vitro assays. […] Exposure to LB-100 reduces the expression of Mad-2 in the cells.
Mad2-overexpressing HeLa cells (HeLa Mad-2 O/E), osteosarcoma human cells (OS-17) and gastric cell lines (MKN28, MKN45, MGC803, and SGC7901) express high levels of Mad2 (Yu, L. et al. 2010). LB-100 inhibits the growth of the HeLa cells, OS-17, MKN28, MKN45, MGC803, and SGC7901 cells in vitro. […] Exposure to LB-100 reduces the expression of Mad-2 in all cell lines.

in vivo = details: beagle, dog, 0.15 mg/kg
beagle dogs = test: Non-GLP dose ranging toxicity study, IV every 4 days x4 doses; assay type: in vivo, dog
[2] = tested on: patients with advanced solid tumors; details: in vivo
Description: This is a Phase I, open label, multicenter, two-part, dose-escalation study of LB-100 administered intravenously in patients with advanced solid tumors. Two dose regimens are explored. In the first regimen (Part 1), single agent LB-100 is given daily on Days 1 through 3 of every 21 day cycle. In the second regimen (Part 2), docetaxel-naïve patients are treated with LB-100 given daily on Days 1 through 3 in combination with a fixed dose of docetaxel (either 60 mg/m^2 or 75 mg/m^2) given on Day 2 of every 21 day cycle. Once the MTD of single agent LB-100 is reached, 3 additional patients are enrolled in an MTD confirmation cohort. Part 2 enrolls patients once the MTD of single agent LB-100 is determined in Part 1.
The starting dose of L8-100 for Part 1 is 0.25 mg/m^2. The starting dose of LB-100 for Part 2 is 2 dose levels below the MTD determined in Part 1, administered in combination with docetaxel 60 mg/m^2. Once the MTD of LB-100+docetaxel 60 mg/m^2 is determined, the dose of LB-100 is reduced 2 dose levels and administered in combination with docetaxel 75 mg/m^2. The dose of LB-100 is then be escalated to the full LB-100 dose (of the LB-100+docetaxel 60 mg/m^2 MTD) and administered in combination with docetaxel 75 mg/m^2. Once the MTD of the combination of LB-100+docetaxel (either 60 mg/m^2 or 75 mg/m^2) is reached, 3 additional patients are enrolled in an MTD/RD confirmation cohort.
LB-100 is administered in escalating dose levels. Enrollment in each dose cohort proceeds in the standard “3+3” schema. In each cohort, the first patient enrolled completes Cycle 1 treatment and safety monitoring prior to the enrollment of the second and third patients; the second and third patients may be enrolled simultaneously. DLTs are evaluated and recorded during the first 2 cycles of treatment.
Initially, the decision to escalate to the next dose level is be based on the observation of DLT during Cycle 1. If no DLT is observed, escalation proceeds to the next cohort. If a DLT is observed in Cycle 2 in the study, the escalation strategy is evaluated moving forward. Escalation continues until the maximum administered dose (MAD), maximum tolerated dose (MTD) and recommended dose (RD) are determined.
On Days 1, 2 and 3 of each cycle, LB-100 was infused over 15 minutes.
LB-100 was administered daily on Days 1 through 3 of every 21 day cycle to patients at the following dose levels:
Enrollment in each dose cohort will proceed in the standard “3+3” schema where 3 patients are initially enrolled per cohort; Scheme 2. In each cohort, the first patient enrolled will complete Cycle 1 treatment and safety monitoring prior to the enrollment of the second and third patients; the second and third patients may be enrolled simultaneously. Dose limiting toxicities (DLTs) will be evaluated and recorded during the first 2 cycles of treatment. Initially, the decision to escalate to the next dose level will be based on the observation of DLT during Cycle 1. If no DLT is observed, escalation will proceed to the next cohort. Note: if a DLT is observed in Cycle 2 in the study, the escalation strategy will be evaluated moving forward. If, however, DLT is observed in 1 of the 3 patients, an additional 3 patients must be enrolled at that dose. In a cohort of 6, if one patient has DLT, then dose escalation may proceed; if 2 or more patients have DLT, then that dose will be considered the maximum administered dose (MAD) and dose escalation will cease. The MTD is defined as one dose level below the MAD. Once the MTD of single agent LB-100 is reached, 3 additional patients will be enrolled in an MTD confirmation cohort. At least 6 patients must be treated at the MTD to determine the safety of that dose as a basis for the starting dose of LB-100 in Part 2 of this study.
The NCI Common Terminology Criteria for Adverse Events (CTCAE) Version 4.0 will be used to grade toxicity.

[3] = tested on: male and female beagle dogs; test: GLP repeat dose toxicity study, IV daily x5 days
Description: In the GLP repeat dose dog study, LB-100 was administered by intravenous injection (slow bolus push) at dose levels of 0.15, 0.30, and 0.75 mg/kg daily for 5 consecutive days.
Multilead (I, II, III, aVR, aVL, aVF, and V2) ECGs were recorded for all animals prior to randomization (Day −8) and for all surviving animals on Day 4 (recorded approximately 2 to 4 hours following dose administration) and Day 27.
Blood pressure (systolic, diastolic, and mean arterial pressure) data were recorded for all animals once during the pretest period (Day −8) and for all surviving animals on study Day 4 (recorded approximately 2 to 4 hours following dose administration) and Day 27.

[4] = tested on: human glioblastoma cell line, U373; details: simultaneous exposure, US 2010/0029683 A1; cited from earlier work
male Fischer rats = test: Non-GLP dose ranging toxicity study, daily IV infusion x4 days (NCI)
Description: (§1) In a non-GLP dose ranging study in male Fischer rats conducted by the NCI, LB-100 was administered by daily intravenous (IV) infusion at 0.5, 0.75 and 1.5 mg/kg/day for 4 consecutive days.

[5] = as above; details: male, Fischer, rat, in vivo, iv
Description: as §1

[6] = Toxicokinetics in GLP repeat-dose rat study; details: Sprague Dawley, in vivo, iv, 0.75 mg/kg/day, study Day 4
From the text: These changes were reversible. […] Inflammation was often accompanied by mesothelial hypertrophy.

[7] = tested on: male and female Sprague Dawley rats; test: GLP repeat-dose toxicity study, daily IV slow bolus x5 days
advanced solid tumors = test: Phase I Part 1 single agent LB-100: tumor response (RECIST 1.1); assay type: in vivo, human
From the text: Two dose regimens are explored.
Although response is not the primary endpoint of this study, patients with measurable disease will be assessed at baseline and during the study by standard criteria. Patients should be reevaluated after receiving 2 cycles of study therapy and then after every 2 cycles thereafter. In the event objective response (PR or CR) is noted, changes in tumor measurements must be confirmed by repeat assessments that should be performed at least 4 weeks after the criteria for response are first met.
Response and progression will be evaluated in this study using the international criteria (version 1.1) proposed by the Response Evaluation Criteria in Solid Tumors (RECIST) Committee [Eur J Cancer. 45 (2009) 228-247]. Changes in only the largest diameter (unidimensional measurement) of the tumor lesions are used in the RECIST 1.1 guidelines. Note: Lesions are either measurable or non-measurable using the criteria provided below.
• Complete Response (CR): Disappearance of all target lesions.
The patient's best overall response assignment will depend on findings of both target and non-target disease and will also take into consideration the appearance of new lesions. It is assumed that at each protocol-specified time point, a response assessment occurs. Table provides a summary of the overall response status calculation at each time point for patients who have measurable disease at baseline.
In the case of SD, follow-up measurements must have met the SD criteria at least once after study entry at a minimum interval at 5 weeks.

TNBC cell lines = test: Cytotoxicity against TNBC cells; assay type: cell-based; details: single agent; present-tense example
Description: LB-100 inhibits PP2A activity and is cytotoxic to TNBC cells. LB-100 synergizes with chemotherapeutic drugs to enhance cytotoxicity against TNBC cells. LB-100 also enhances the effects of chemotherapy in TNBC xenografts. LB-100 chemosensitizes doxorubicin and cisplatin to TNBC cells and/or has a synergistic cytotoxic effect with doxorubicin and/or cisplatin against TNBC cells.
Both doxorubicin (0.2 μg/ml) and cisplatin (2 μg/ml) in combination with LB-100 are cytotoxic to TNBC cell lines. The addition of LB-100 sensitizes TNBC cells to doxorubicin and cisplatin. TNBC cell lines include HCC1599, HCC1937, HCC1599, MDA-MB-468, HCC38, HCC70, HCC1806, HCC1187, DU4475, BT-549, Hs-578T, MDA-MB-231, MDA-MB-436, MDA-MB-157, MDA-MB-453, BT-20, and HCC1395.

[8] = Solubility and stability of LB-100 solution; assay type: physicochemical; details: for stability of formulation: in monosodium glutamate, pH 10.5
From the text: LB-100 is a water soluble enantiomeric zwitterion provided as a sterile solution for intravenous administration. […] Phosphate buffered saline (PBS) was used as the vehicle for LB-100 administration in preclinical efficacy studies and sodium bicarbonate 4.2% for injection was used as the vehicle for GLP toxicity studies.

Akt = details: Lu et al. 2009; cited from earlier work

CN1CCN(C(=O)C2C(C(=O)O)[C@H]3CC[C@@H]2O3)CC1 (mixture of isomers) [LB-100, 3-(4methylpiperazine-carbonyl)-7-oxalobicyclo[2.2.1]heptane-2-carboxylic acid]
cytotoxicity [1]: Dose-dependent cytotoxicity
AUC(0-t) (in vivo; female): 335 ng·h/mL
AUC(0-t) (in vivo; male): 267 ng·h/mL
possible test article-related clinical observation (beagle dogs; 1.0 mg/kg, one female, study Day 13): intermittent tremors
survival (beagle dogs; 0.1-1.0 mg/kg): no LB-100-related effects on survival
body weight gain and food consumption (beagle dogs; 0.5 and 1.0 mg/kg, females): lower body weight gains and food consumption
no-observed-effect level (NOEL) (beagle dogs; IV every 4 days x4 doses): 0.25 mg/kg
signs of toxicity (beagle dogs; dog, in vivo, 1 mg/kg): almost no signs of toxicity
adverse events ([2]; human): No adverse events attributable to LB-100
dyspnea ([2]; human): grade 1
tolerability ([2]; human): without any symptoms attributable to LB-100
vomiting, related to LB-100 ([2]; human): grade 3
adverse events attributed to a bleeding rectal mass ([2]; human, 1 cycle): grade 3 anemia and grade 2 weakness
neuropathy, possibly related to LB-100 ([2]; human, 4 cycles): Grade 1
adverse events [2]: No new adverse events
dose limiting toxicity [2]: no dose limiting toxicity
relation of pulmonary embolism to treatment [2]: not related
tolerability ([3]; 0.15 mg/kg/day): well tolerated
test article-related lethality, animals ([3]; 0.75 mg/kg/day group, before fourth dose): 2 of 10
Highest Non-Severely Toxic Dose (HNSTD) ([3]; daily IV x5 days): 0.15 mg/kg
ECGs ([3]; dog, in vivo): within normal limits
blood pressure ([3]; dog, in vivo): unaffected
cytotoxic effect of cisplatin [4]: enhanced
cytotoxic effect of doxorubicin [4]: enhanced
cytotoxic effect of taxol [4]: enhanced
cytotoxic effect of temozolomide [4]: enhanced
nephrosis severity (male Fischer rats; 0.75 mg/kg/day): mild
no-observed-adverse-effect-level (NOAEL) (male Fischer rats; 0.5, 0.75 and 1.5 mg/kg/day x4 days): not established
heart toxicity (male Fischer rats; 0.75 and 1.5 mg/kg/day groups): epicardial hyperplasia with inflammation primarily on the epicardium of the atria
MTD (male Fischer rats; IV daily for 4 days, converted dose): about 4.5 mg/m^2
unscheduled deaths (male Fischer rats; any treatment group): no unscheduled deaths
dose-limiting toxicities (male Fischer rats; rat, in vivo, iv): Kidney, heart, femoral bone, liver and urinary bladder toxicity
MTD at 4 days [5]: 0.75 mg/kg/day
AUC(0-t) ([6]; female, females): 691 ng·h/mL
C0 ([6]; female, females): 2350 ng/mL
AUC(0-t) ([6]; male, males): 596 ng·h/mL
C0 ([6]; male, males): 1800 ng/mL
epicardium and subepicardium of atria ([7]; 0.5, 0.75, 1.25 mg/kg/day males, 1.25 mg/kg/day females): Minimal to mild subacute inflammation
kidney finding ([7]; 0.75 and 1.25 mg/kg/day, males and females): adverse, test article-related nephrosis of the kidneys
test article-related effects on urinalysis parameters ([7]; Day 5, reversible): observed in all treatment groups
severely toxic dose in 10% of the animals (STD 10) ([7]; daily IV x5 days): 0.75 mg/kg/day
duration of stable disease (advanced solid tumors; Patient 10, pancreatic cancer, 0.83 mg/m^2): 39 weeks
time remained stable since starting LB-100 (advanced solid tumors; Patient 10, pancreatic cancer, interim (8 cycles)): 6 months
cycles on treatment with stable disease (advanced solid tumors; Patient 17, metastatic thymoma, DL5 1.75 mg/m^2): 7 cycles and 8 cycles
cycles of stable disease (advanced solid tumors; breast, ovarian, carcinoid and testicular cancer patients): 4-6 cycles
cytotoxicity to TNBC cells (TNBC cell lines): cytotoxic
water solubility ([8]; enantiomeric zwitterion): water soluble
stability of formulation ([8]; refrigerated temperatures): at least 8 hours
stability of formulation ([8]; −20° C.): stable for months
racemization of separated enantiomers ([8]; in solution): racemize rapidly

CCN1CCCC1CNC(=O)c1cc(S(=O)(=O)CC)c(NC)cc1OC (stereo not drawn) [LB-102]
phosphorylation of Akt (Akt): increased
